# Measured values: patent publication US20250215039A1, “NUCLEOSIDES FOR TREATING CANCER” (PRIMEFOUR THERAPEUTICS, INC., priority 2022, published 2025)
# pIC50: −log10 of the molar value. Like-named read-outs stand apart in the source and are kept apart here.
# Tested on: cancer cell lines
# Experiment: Cancer cell proliferation activity (CellTiterGlo, 72 h)
# Assay type: cell-based
# Conditions: 72 h, 72 h, read-out: IC50
# Method in brief: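 Readout is CellTiterGlo luminescence after 72 h compound exposure (0.1% DMSO final), started one day post-seeding, at 37 °C.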
smiles,measurement,setting,value
"Cc1cn([C@H]2C[C@H](O)[C@@](C#N)(CO)O2)c(=O)[nH]c1=O [Cpd. No. 123, (2R,3S,5R)-3-hydroxy-2-(hydroxymethyl)-5-(5-methyl-2,4-dioxo-3,4-dihydropyrimidin-1(2H)-yl)tetrahydrofuran-2-carbonitrile]",pIC50,5637 cell line (bladder),< 4.30
same,pIC50,AS49 cell line (lung),< 4.30
same,pIC50,CLS439 cell line (bladder),< 4.30
same,pIC50,HS729 cell line (muscle),< 4.30
same,pIC50,JAR cell line (placenta),< 4.30
same,pIC50,"Homo sapiens, 786-0, 72 h, 786O cell line (kidney)",< 4.30
same,pIC50,"Homo sapiens, A2780, 72 h, A2780 cell line (ovary)",< 4.30
same,pIC50,"Homo sapiens, A-375, 72 h, A375 cell line (skin)",< 4.30
same,pIC50,"Homo sapiens, A-431, 72 h, A431 cell line (skin)",5.59
same,pIC50,"Homo sapiens, ASPC1, 72 h, ASPC1 cell line (pancreas)",< 4.30
same,pIC50,"Homo sapiens, BT-20, 72 h, BT20 cell line (breast)",< 4.30
same,pIC50,"Homo sapiens, CAKI-1, 72 h, CAKI1 cell line (kidney)",< 4.30
same,pIC50,"Homo sapiens, COLO 205, 72 h, COLO205 cell line (colon)",< 4.30
same,pIC50,"Homo sapiens, COLO-678, 72 h, COLO678 cell line (colon)",< 4.30
same,pIC50,"Homo sapiens, Ca-Ski, CASKI cell line (cervical)",< 4.30
same,pIC50,"Homo sapiens, Caco-2, 72 h, CACO2 cell line (colon)",< 4.30
same,pIC50,"Homo sapiens, Calu-6, 72 h, CALU6 cell line (lung)",< 4.30
same,pIC50,"Homo sapiens, EFO-21, 72 h, EFO21 cell line (ovary)",< 4.30
same,pIC50,"Homo sapiens, EJ-28, 72 h, EJ28 cell line (bladder)",< 4.30
same,pIC50,"Homo sapiens, HCT-15, 72 h, HCT15 cell line (colon)",< 4.30
same,pIC50,"Homo sapiens, HCT-116, 72 h, HCT116 cell line (colon)",< 4.30
same,pIC50,"Homo sapiens, HEK293, 72 h, HEK293 cell line (kidney)",< 4.30
same,pIC50,"Homo sapiens, HL-60, 72 h, HL-60 cell line (hematological)",< 4.30
same,pIC50,"Homo sapiens, HT-29, 72 h, HT29 cell line (colon)",< 4.30
same,pIC50,"Homo sapiens, HT-1080, 72 h, HT1080 cell line (connective tissue)",< 4.30
same,pIC50,"Homo sapiens, HeLa, HELA cell line (cervical)",< 4.30
same,pIC50,"Homo sapiens, Hs-578T, HS578T cell line, breast",< 4.30
same,pIC50,"Homo sapiens, IGROV-1, 72 h, IGROV1 cell line (ovary)",< 4.30
same,pIC50,"Homo sapiens, IMR-90, 72 h, IMR90 cell line, lung",< 4.30
same,pIC50,"Homo sapiens, J82, 72 h, J82 cell line (bladder)",5.31
same,pIC50,"Homo sapiens, JEG-3, 72 h, JEG3 cell line (placenta)",< 4.30
same,pIC50,"Homo sapiens, JIMT-1, 72 h, JIMT1 cell line (breast)",< 4.30
same,pIC50,"Homo sapiens, K562, 72 h, K-562 cell line (hematological)",< 4.30
same,pIC50,"Homo sapiens, Kasumi 1, 72 h, KASUMI-1 cell line (hematological)",< 4.30
same,pIC50,"Homo sapiens, L-363, 72 h, L-363 cell line (hematological)",< 4.30
same,pIC50,"Homo sapiens, MCF7, 72 h, MCF7 cell line (breast)",< 4.30
same,pIC50,"Homo sapiens, MDA-MB-231, 72 h, MDAMB231 cell line (breast)",< 4.30
same,pIC50,"Homo sapiens, MDA-MB-435, 72 h, MDAMB435 cell line (skin)",< 4.30
same,pIC50,"Homo sapiens, MDA-MB-468, 72 h, MDAMB468 cell line (breast)",< 4.30
same,pIC50,"Homo sapiens, MG-63, 72 h, MG63 cell line (bone)",< 4.30
same,pIC50,"Homo sapiens, MIA PaCa-2, 72 h, MIAPACA2 cell line (pancreas)",< 4.30
same,pIC50,"Homo sapiens, MV4-11, 72 h, MV4-11 cell line (hematological)",6.42
same,pIC50,"Homo sapiens, NCI-H292, 72 h, NCIH292 cell line (lung)",< 4.30
same,pIC50,"Homo sapiens, NCI-H460, 72 h, NCIH460 cell line (lung)",5.55
same,pIC50,"Homo sapiens, OVCAR-3, 72 h, OVCAR3 cell line (ovary)",< 4.30
same,pIC50,"Homo sapiens, OVCAR-4, 72 h, OVCAR4 cell line (ovary)",< 4.30
same,pIC50,"Homo sapiens, PANC-1, 72 h, PANC1 cell line (pancreas)",< 4.30
same,pIC50,"Homo sapiens, PC-3, 72 h, PC3 cell line (prostate)",< 4.30
same,pIC50,"Homo sapiens, Panc1005, 72 h, PANC1005 cell line (pancreas)",< 4.30
same,pIC50,"Homo sapiens, RD, RD cell line (muscle)",< 4.30
same,pIC50,"Homo sapiens, Ramos, RAMOS cell line (hematological)",< 4.30
same,pIC50,"Homo sapiens, SAOS-2, 72 h, SAOS2 cell line (bone)",< 4.30
same,pIC50,"Homo sapiens, SF-295, 72 h, SF295 cell line (brain)",< 4.30
same,pIC50,"Homo sapiens, SK-MEL-5, 72 h, SKMEL5 cell line, skin",< 4.30
same,pIC50,"Homo sapiens, SK-MEL-28, 72 h, SKMEL28 cell line (skin)",< 4.30
same,pIC50,"Homo sapiens, SK-N-AS, SKNAS cell line (brain)",< 4.30
same,pIC50,"Homo sapiens, SK-N-SH, SKNSH cell line (brain)",< 4.30
same,pIC50,"Homo sapiens, SK-OV-3, 72 h, SKOV3 cell line (ovary)",< 4.30
same,pIC50,"Homo sapiens, SU-DHL10, 72 h, SU-DHL-10 cell line (hematological)",< 4.30
same,pIC50,"Homo sapiens, SW-620, 72 h, SW620 cell line (colon)",< 4.30
same,pIC50,"Homo sapiens, T-24, 72 h, T24 cell line (bladder)",5.52
same,pIC50,"Homo sapiens, TE-671, 72 h, TE671 cell line (muscle)",< 4.30
same,pIC50,"Homo sapiens, U2OS, U2OS cell line (bone)",< 4.30
same,pIC50,"Homo sapiens, UMUC3, 72 h, UMUC3 cell line (bladder)",< 4.30
same,pIC50,"Homo sapiens, UO-31, 72 h, UO31 cell line (kidney)",< 4.30
same,pIC50,"MT-3, 72 h, MT3 cell line (breast)",5.42
same,pIC50,"NCI-H358M, NCIH358M cell line (lung)",< 4.30
same,pIC50,"PBMC, PBMC (hematological)",< 4.30
